The text below walks through data of paper PMC4774911, “Biochemical Screening of Five Protein Kinases from Plasmodium falciparum against 14,000 Cell-Active Compounds” (PLoS ONE, 2016).

“And” between values parts separate entries of the source, which are not always exact repeats. Equal entries are not always repeated.

Common to all, as to test: biochemical
Holding throughout (parameters): endogenous in cells; host or cells: K562 cell extract; species or system K562 (extract); replicate k of n = 2 (each experiment ID is one independent experiment; two experiment IDs per compound)
Common to all, as to details: read-out: KDapp

One assay concerns the target PIM2 (Homo sapiens, UniProt Q9P1W9).
Another assay addresses T1, NEK3 (Homo sapiens, UniProt P51956).
T1 sequence (P51956 1-506): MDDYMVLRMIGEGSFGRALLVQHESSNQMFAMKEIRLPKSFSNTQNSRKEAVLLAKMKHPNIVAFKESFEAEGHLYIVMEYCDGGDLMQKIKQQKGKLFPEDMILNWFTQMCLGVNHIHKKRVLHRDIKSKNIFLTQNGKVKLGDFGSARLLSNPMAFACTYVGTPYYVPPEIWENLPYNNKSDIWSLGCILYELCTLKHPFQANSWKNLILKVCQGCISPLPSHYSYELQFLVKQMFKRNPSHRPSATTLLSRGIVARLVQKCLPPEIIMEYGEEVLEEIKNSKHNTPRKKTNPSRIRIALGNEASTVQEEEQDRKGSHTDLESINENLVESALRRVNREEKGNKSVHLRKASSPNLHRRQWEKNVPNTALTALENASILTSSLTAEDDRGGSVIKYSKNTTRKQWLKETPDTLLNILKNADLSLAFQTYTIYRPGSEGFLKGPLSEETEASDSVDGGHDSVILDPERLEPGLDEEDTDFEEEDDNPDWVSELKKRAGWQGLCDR

Another assay has as its target T2, TAOK2 (Homo sapiens, UniProt Q9UL54).
T2 sequence (Q9UL54 1-1235): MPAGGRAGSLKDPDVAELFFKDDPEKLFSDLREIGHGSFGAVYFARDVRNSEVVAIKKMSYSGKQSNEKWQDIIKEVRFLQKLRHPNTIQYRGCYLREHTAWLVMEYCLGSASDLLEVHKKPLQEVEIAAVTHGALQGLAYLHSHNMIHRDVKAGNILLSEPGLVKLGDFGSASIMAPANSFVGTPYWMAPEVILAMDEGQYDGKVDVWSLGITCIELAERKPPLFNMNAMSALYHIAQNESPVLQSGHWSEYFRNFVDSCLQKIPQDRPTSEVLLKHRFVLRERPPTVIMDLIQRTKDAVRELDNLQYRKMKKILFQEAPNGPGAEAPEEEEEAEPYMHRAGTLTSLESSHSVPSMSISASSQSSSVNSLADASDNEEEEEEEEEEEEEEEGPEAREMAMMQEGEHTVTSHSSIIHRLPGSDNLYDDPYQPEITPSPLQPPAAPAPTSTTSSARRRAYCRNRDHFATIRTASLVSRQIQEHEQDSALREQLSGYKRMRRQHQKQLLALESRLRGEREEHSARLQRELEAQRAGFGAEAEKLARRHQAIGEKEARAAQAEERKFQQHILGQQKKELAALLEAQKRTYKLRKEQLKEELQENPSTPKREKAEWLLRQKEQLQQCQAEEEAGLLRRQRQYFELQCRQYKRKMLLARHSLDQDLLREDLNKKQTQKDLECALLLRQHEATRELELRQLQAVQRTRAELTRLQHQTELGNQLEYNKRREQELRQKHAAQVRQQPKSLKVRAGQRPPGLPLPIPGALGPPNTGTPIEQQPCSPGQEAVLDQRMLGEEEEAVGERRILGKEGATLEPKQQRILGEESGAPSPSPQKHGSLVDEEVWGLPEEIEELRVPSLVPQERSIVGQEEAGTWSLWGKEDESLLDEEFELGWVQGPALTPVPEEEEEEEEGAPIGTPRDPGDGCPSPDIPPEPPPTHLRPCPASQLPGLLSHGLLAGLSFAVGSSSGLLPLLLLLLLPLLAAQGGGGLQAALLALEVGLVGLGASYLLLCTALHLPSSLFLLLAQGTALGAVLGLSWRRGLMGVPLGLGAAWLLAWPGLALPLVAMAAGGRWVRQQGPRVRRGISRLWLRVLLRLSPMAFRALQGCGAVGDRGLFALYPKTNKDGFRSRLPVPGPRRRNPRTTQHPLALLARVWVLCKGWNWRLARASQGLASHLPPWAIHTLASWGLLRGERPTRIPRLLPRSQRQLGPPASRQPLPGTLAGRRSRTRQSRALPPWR

In a further assay the target is JAK2 (Homo sapiens, UniProt O60674).
Chain of JAK2 (O60674 whole entry): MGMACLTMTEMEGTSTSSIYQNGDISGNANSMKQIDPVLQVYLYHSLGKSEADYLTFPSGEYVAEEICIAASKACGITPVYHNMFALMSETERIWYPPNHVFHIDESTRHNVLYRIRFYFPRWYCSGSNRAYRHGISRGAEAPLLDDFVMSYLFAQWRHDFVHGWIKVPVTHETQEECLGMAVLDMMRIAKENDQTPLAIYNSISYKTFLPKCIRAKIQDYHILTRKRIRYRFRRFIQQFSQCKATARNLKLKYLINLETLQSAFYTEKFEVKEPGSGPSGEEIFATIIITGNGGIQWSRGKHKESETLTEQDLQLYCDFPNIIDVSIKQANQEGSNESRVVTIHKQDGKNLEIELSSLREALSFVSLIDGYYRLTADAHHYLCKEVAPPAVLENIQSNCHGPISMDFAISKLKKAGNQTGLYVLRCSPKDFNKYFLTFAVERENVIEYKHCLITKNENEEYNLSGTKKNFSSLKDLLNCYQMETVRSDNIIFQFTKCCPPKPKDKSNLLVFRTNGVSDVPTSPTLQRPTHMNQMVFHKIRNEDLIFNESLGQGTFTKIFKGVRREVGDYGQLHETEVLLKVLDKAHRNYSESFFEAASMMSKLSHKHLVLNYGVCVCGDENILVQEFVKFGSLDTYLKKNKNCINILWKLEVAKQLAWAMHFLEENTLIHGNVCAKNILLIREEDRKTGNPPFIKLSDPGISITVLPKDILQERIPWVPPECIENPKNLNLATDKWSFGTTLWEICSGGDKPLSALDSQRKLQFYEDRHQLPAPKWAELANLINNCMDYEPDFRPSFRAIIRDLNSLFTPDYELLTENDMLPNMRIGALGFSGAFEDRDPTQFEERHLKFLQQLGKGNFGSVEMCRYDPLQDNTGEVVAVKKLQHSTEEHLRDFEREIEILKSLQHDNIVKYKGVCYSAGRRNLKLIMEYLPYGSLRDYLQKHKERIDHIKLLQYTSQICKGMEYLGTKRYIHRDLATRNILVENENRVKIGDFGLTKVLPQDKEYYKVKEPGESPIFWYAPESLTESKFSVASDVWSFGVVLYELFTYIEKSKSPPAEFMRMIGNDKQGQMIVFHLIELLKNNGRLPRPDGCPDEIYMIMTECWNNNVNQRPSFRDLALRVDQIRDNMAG
The target of a further assay is T3, NLK (Homo sapiens, UniProt Q9UBE8).
T3 sequence (Q9UBE8 1-527): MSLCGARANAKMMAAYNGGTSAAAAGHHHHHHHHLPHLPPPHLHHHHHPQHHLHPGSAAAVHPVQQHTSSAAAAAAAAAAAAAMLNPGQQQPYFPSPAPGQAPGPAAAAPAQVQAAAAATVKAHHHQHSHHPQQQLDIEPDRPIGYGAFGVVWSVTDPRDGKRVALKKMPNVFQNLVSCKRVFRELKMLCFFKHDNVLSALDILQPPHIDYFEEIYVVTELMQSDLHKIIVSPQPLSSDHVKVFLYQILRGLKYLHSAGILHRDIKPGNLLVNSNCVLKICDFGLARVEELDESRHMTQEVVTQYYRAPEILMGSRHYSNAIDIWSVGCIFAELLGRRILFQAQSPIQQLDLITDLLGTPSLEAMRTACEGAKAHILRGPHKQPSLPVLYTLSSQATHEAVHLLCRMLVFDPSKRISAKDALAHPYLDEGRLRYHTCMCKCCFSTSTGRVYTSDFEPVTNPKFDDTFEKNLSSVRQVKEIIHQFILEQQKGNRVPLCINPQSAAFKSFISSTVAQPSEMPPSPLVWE

Chain of PIM2 (Q9P1W9 whole entry): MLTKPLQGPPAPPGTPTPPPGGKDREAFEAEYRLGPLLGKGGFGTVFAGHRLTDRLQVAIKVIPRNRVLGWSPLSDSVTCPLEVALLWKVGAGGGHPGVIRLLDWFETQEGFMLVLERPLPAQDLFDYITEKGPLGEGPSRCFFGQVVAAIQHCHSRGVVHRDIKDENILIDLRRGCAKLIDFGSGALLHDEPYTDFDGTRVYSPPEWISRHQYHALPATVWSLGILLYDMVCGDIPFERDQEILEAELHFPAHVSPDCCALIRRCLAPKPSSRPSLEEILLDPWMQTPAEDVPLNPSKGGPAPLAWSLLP

With `CN1CCN(c2ccc(Nc3ncc(C#N)c(Nc4ccccc4C(N)=O)n3)cc2)CC1.Cl` [TCMDC-134116], the Kd on PIM2 was 2970 nM; on NEK3 it was 717 nM; on TAOK2 it was 274 nM; on JAK2 it was 285 nM and 185 nM; at NLK, 950 nM and 890 nM.
